# According to PubChem BioAssay AID1259407 (Chemical Carcinogenesis Research Information System (CCRIS), 2018):
# The source made the active and inactive calls. How the calls were made is not given here.
# System: CCRIS mutagenicity, Ames/micronucleus/aberration tests
# Experiment: CCRIS mutagenicity studies
# [1] = Test System: AMES SALMONELLA TYPHIMURIUM, Strain/Indicator: TA100, Metabolic Activation: NONE, Method: STANDARD PLATE
smiles,measurement,setting,value
CC[C@@]1(O)C[C@H](O[C@H]2C[C@H](N(C)C)[C@H](O)[C@H](C)O2)c2c(cc3c(c2O)C(=O)c2c(O)ccc(O)c2C3=O)[C@H]1C(=O)OC,mutagenic call,"Test System: AMES SALMONELLA TYPHIMURIUM, Strain/Indicator: TA102, Metabolic Activation: NONE, Method: STANDARD PLATE",active; positive
same,mutagenic call,"Test System: AMES SALMONELLA TYPHIMURIUM, Strain/Indicator: TA104, Metabolic Activation: NONE, Method: STANDARD PLATE",active; positive
same,mutagenic call,"Test System: AMES SALMONELLA TYPHIMURIUM, Strain/Indicator: TA1537, Metabolic Activation: NONE",active; positive
same,mutagenic call,"Test System: AMES SALMONELLA TYPHIMURIUM, Strain/Indicator: TA1537, Metabolic Activation: RAT, LIVER, S-9, AROCLOR 1254",active; positive
CN(C)CC(=O)O,mutagenic call,[1],inactive; negative
same,mutagenic call,"Test System: AMES SALMONELLA TYPHIMURIUM, Strain/Indicator: TA100, Metabolic Activation: RAT, LIVER, S-9, AROCLOR 1254, Method: STANDARD PLATE",inactive; negative
O=C1C=CC(=O)c2ccccc21,mutagenic call,"End Point: In vitro chromosomal aberrations, Test System: Chinese hamster lung (CHL/IU) cells, Metabolic Activation: Rat, Liver, S9, Phenobarbital and 5,6-benzoflavone",active; positive (structural changes). toxic at 0.014 mg/ml.
same,mutagenic call,"Test System: AMES SALMONELLA TYPHIMURIUM, Strain/Indicator: TA97, Metabolic Activation: NONE, Method: PREINCUBATION",inactive; negative
same,mutagenic call,"Test System: AMES SALMONELLA TYPHIMURIUM, Strain/Indicator: TA97, Metabolic Activation: NONE, Method: STANDARD PLATE",inactive; negative
same,mutagenic call,"Test System: AMES SALMONELLA TYPHIMURIUM, Strain/Indicator: TA97, Metabolic Activation: RAT, LIVER, S-9, PCB, Method: STANDARD PLATE",inactive; negative
same,mutagenic call,"Test System: AMES SALMONELLA TYPHIMURIUM, Strain/Indicator: TA97, Metabolic Activation: RAT, LIVER, S-9, PHENOBARBITAL AND 5,6-BENZOFLAVONE, Method: PREINCUBATION",active; positive
same,mutagenic call,"Test System: AMES SALMONELLA TYPHIMURIUM, Strain/Indicator: TA98, Metabolic Activation: NONE, Method: PREINCUBATION",inactive; negative
same,mutagenic call,"Test System: AMES SALMONELLA TYPHIMURIUM, Strain/Indicator: TA98, Metabolic Activation: NONE, Method: STANDARD PLATE",inactive; negative
same,mutagenic call,"Test System: AMES SALMONELLA TYPHIMURIUM, Strain/Indicator: TA98, Metabolic Activation: RAT, LIVER, S-9, PCB, Method: STANDARD PLATE",inactive; negative
same,mutagenic call,"Test System: AMES SALMONELLA TYPHIMURIUM, Strain/Indicator: TA98, Metabolic Activation: RAT, LIVER, S-9, PHENOBARBITAL AND 5,6-BENZOFLAVONE, Method: PREINCUBATION",inactive; negative
same,mutagenic call,"Test System: AMES SALMONELLA TYPHIMURIUM, Strain/Indicator: TA100, Metabolic Activation: NONE, Method: PREINCUBATION",active; positive
same,mutagenic call,[1],inactive; negative
same,mutagenic call,"Test System: AMES SALMONELLA TYPHIMURIUM, Strain/Indicator: TA100, Metabolic Activation: RAT, LIVER, S-9, PCB, Method: STANDARD PLATE",inactive; negative
same,mutagenic call,"Test System: AMES SALMONELLA TYPHIMURIUM, Strain/Indicator: TA100, Metabolic Activation: RAT, LIVER, S-9, PHENOBARBITAL AND 5,6-BENZOFLAVONE, Method: PREINCUBATION",active; positive
same,mutagenic call,"Test System: AMES SALMONELLA TYPHIMURIUM, Strain/Indicator: TA102, Metabolic Activation: NONE, Method: PREINCUBATION",inactive; negative
same,mutagenic call,"Test System: AMES SALMONELLA TYPHIMURIUM, Strain/Indicator: TA102, Metabolic Activation: RAT, LIVER, S-9, PHENOBARBITAL AND 5,6-BENZOFLAVONE, Method: PREINCUBATION",active; positive
same,mutagenic call,"Test System: AMES SALMONELLA TYPHIMURIUM, Strain/Indicator: TA104, Metabolic Activation: NONE, Method: PREINCUBATION",active; positive
same,mutagenic call,"Test System: AMES SALMONELLA TYPHIMURIUM, Strain/Indicator: TA104, Metabolic Activation: RAT, LIVER, S-9, PHENOBARBITAL AND 5,6-BENZOFLAVONE, Method: PREINCUBATION",active; positive
same,mutagenic call,"Test System: AMES SALMONELLA TYPHIMURIUM, Strain/Indicator: TA1535, Metabolic Activation: NONE, Method: PREINCUBATION",inactive; negative
same,mutagenic call,"Test System: AMES SALMONELLA TYPHIMURIUM, Strain/Indicator: TA1535, Metabolic Activation: RAT, LIVER, S-9, PHENOBARBITAL AND 5,6-BENZOFLAVONE, Method: PREINCUBATION",inactive; negative
same,mutagenic call,"Test System: AMES SALMONELLA TYPHIMURIUM, Strain/Indicator: TA1537, Metabolic Activation: NONE, Method: PREINCUBATION",inactive; negative
same,mutagenic call,"Test System: AMES SALMONELLA TYPHIMURIUM, Strain/Indicator: TA1537, Metabolic Activation: RAT, LIVER, S-9, PHENOBARBITAL AND 5,6-BENZOFLAVONE, Method: PREINCUBATION",inactive; negative
same,mutagenic call,"Test System: AMES SALMONELLA TYPHIMURIUM, Strain/Indicator: TA1538, Metabolic Activation: NONE, Method: PREINCUBATION",inactive; negative
same,mutagenic call,"Test System: AMES SALMONELLA TYPHIMURIUM, Strain/Indicator: TA1538, Metabolic Activation: RAT, LIVER, S-9, PHENOBARBITAL AND 5,6-BENZOFLAVONE, Method: PREINCUBATION",inactive; negative
same,mutagenic call,"Test System: AMES SALMONELLA TYPHIMURIUM, Strain/Indicator: TA2637, Metabolic Activation: NONE, Method: PREINCUBATION",active; positive
same,mutagenic call,"Test System: AMES SALMONELLA TYPHIMURIUM, Strain/Indicator: TA2637, Metabolic Activation: RAT, LIVER, S-9, PHENOBARBITAL AND 5,6-BENZOFLAVONE, Method: PREINCUBATION",active; positive
same,mutagenic call,"Test System: Ames Salmonella typhimurium, Strain/Indicator: TA97, Metabolic Activation: None, Method: Preincubation",inactive; negative
same,mutagenic call,"Test System: Ames Salmonella typhimurium, Strain/Indicator: TA97, Metabolic Activation: Rat, Liver, S9, Aroclor 1254, Method: Preincubation",inactive; negative
same,mutagenic call,"Test System: Ames Salmonella typhimurium, Strain/Indicator: TA98, Metabolic Activation: None, Method: Preincubation",inactive; negative
same,mutagenic call,"Test System: Ames Salmonella typhimurium, Strain/Indicator: TA98, Metabolic Activation: Rat, Liver, S9, Aroclor 1254, Method: Preincubation",inactive; negative
same,mutagenic call,"Test System: Ames Salmonella typhimurium, Strain/Indicator: TA100, Metabolic Activation: None, Method: Preincubation",inactive; negative
same,mutagenic call,"Test System: Ames Salmonella typhimurium, Strain/Indicator: TA100, Metabolic Activation: Rat, Liver, S9, Aroclor 1254, Method: Preincubation",inactive; negative
same,mutagenic call,"Test System: Ames Salmonella typhimurium, Strain/Indicator: TA102, Metabolic Activation: None, Method: Preincubation",inactive; negative
same,mutagenic call,"Test System: Ames Salmonella typhimurium, Strain/Indicator: TA102, Metabolic Activation: Rat, Liver, S9, Aroclor 1254, Method: Preincubation",inactive; negative
